Reference: patent publication US10166225B2, “Method for treating osteoporosis” (Exelixis, Inc., priority 2011, dated 2019)

What was measured:
human osteoclasts = assay: Osteoclast activity assay (resorption index CTX/TRACP 5b); format: cell-based; details: reference inhibitor, 1_M
Protocol: In the second part, the culture medium of human osteoclasts was replaced by new medium at day 7, and the formed mature osteoclasts were cultured for an additional 3 days, allowing them to resorb bone. Compound 1 was added into the culture medium at day 7. […] C-terminal cross-linked telopeptides of type I collagen (CTX) were measured in the culture medium collected at day 10 to quantitate bone resorption during days 7-10. […] was measured at day 7 to quantitate osteoclast number before Compound 1 was added. The CTX values were divided by the […] values, resulting as a resorption index that indicates mean osteoclast activity. […] The objective of this study was to investigate the effects of Compound 1 selected by the Sponsor on differentiation and activity of human osteoclasts and mouse osteoblasts in vitro. The effects on osteoclasts were studied using a model where bone marrow-derived human osteoclast precursor cells are cultured on bovine bone slices for 7 days in conditions favouring osteoclast differentiation, and allowed to differentiate into bone-resorbing osteoclasts. After completion of osteoclast differentiation at day 7, the culture medium was removed and new culture medium favouring osteoclast activity was added into the wells. The mature osteoclasts were then cultured for an additional 3 days, allowing them to resorb bone. In the osteoclast differentiation assay, the test compounds and a reference inhibitor osteoprotegerin (OPG) were added into cultures at day 0. In the osteoclast activity assay, the test compounds and a reference inhibitor E64 were added into cultures at day 7. Seven concentrations in 8 replicates were tested in both assays. Tartrate-resistant acid phosphatase 5b activity ([…]) was measured from the culture medium collected at day 7 as an index of the number of osteoclasts formed in each well during the differentiation period. C-terminal cross-linked telopeptides of type I collagen (CTX) was measured from the culture medium collected at day 10 to quantitate bone resorption during days 7-10. A human osteoclast culture system was developed for use in this study where CD34+ osteoclast precursor cells derived from human bone marrow (Poietics® Human Osteoclast Precursors, Lonza, Walkersville, USA) are cultured on bovine bone slices in the presence of appropriate growth factors, including M-CSF and RANK-ligand ([…] et al. 2009). The cells are first allowed to differentiate into mature bone-resorbing osteoclasts, and the formed osteoclasts are then allowed to resorb bone. The test and reference compounds are added into the cell cultures at the beginning of the differentiation and/or the resorption period, and their effects on the differentiation and/or resorbing activity of osteoclasts are determined. Secreted […] is determined from the culture medium after the differentiation period using a commercially available method (BoneTRAPÒ, IDS Ltd, Boldon, UK). Secreted […] describes accurately the number of osteoclasts formed in each well during the differentiation period. CTX is determined from the culture medium after the resorption period using a commercially available method (CrossLapsÒ for cultures, IDS Ltd, Boldon, UK). CTX describes accurately the amount of bone collagen degradation products released into the culture medium in each well during the resorption period. […] In this study, human bone marrow-derived CD34+ stem cells (10000 cells/well) were suspended in culture medium and allowed to attach to bovine bone slices in 96-well tissue culture plates. The culture medium (containing 10% FBS, OCP BulletKit® Lonza, Walkersville, USA) was supplemented with appropriate amounts of important growth factors favoring osteoclast differentiation and activity, including M-CSF (33 ng/ml, OCP BulletKit® Lonza, Walkersville, USA) and RANK-ligand (66 ng/ml, OCP BulletKit® Lonza, Walkersville, USA) in 200 μl of medium. The cells were incubated in a CO2 incubator in humidified atmosphere of 95% air and 5% carbon dioxide at 37° C. […]

[1] = women, subcutaneous denosumab 60 mg every 6 months; one month after injection; cited from earlier work
[2] = postmenopausal women, one subcutaneous injection, dose-dependent, for as long as 6 months; cited from earlier work

Row | Molecule | effect on osteoclast activity (human osteoclasts) | serum CTx levels [1] | suppression of urinary NTx [2]
1 | CC(C)C[C@H](NC(=O)[C@H]1O[C@@H]1C(=O)O)C(=O)NCCCCN=C(N)N [Compound E64, reference compound] | inhibited significantly | – | –
2 | denosumab: subcutaneous denosumab (60 mg) in the FREEDOM osteoporosis trial | – | decreased to levels below the premenopausal reference interval | up to 81%
